The record followed here is paper PMC7179312 (Antimicrobial Agents and Chemotherapy, 2020).

Assay [1] relates to P. aeruginosa PAM1154 carrying KPC-2::L169P (PAM4751). In words: Checkerboard potentiation of antibiotic activity by BLIs. Format: cell-based, Pseudomonas aeruginosa. The settings on record: for Beta-lactam MIC in the presence of BLI: PAM4751 KPC-2 L169P. The text has this: (§1) BLI potency was defined as PV50 (PV, potentiation value) of antibiotic potentiation. PV50 is the concentration of a BLI that is required to reduce the antibiotic MIC to the middle of the MIC range where the highest MIC is the MIC for a KPC-producing strain with no inhibitor added and the lowest MIC is the MIC for the vector-alone strain, which corresponds to complete inhibition of KPC. As a given MIC is directly related to the β-lactamase activity, PV50 might be considered the concentration of a BLI that is required to achieve half-effect of inhibition of β-lactamase activity (in whole cells) to hydrolyze an antibiotic of interest. […] However, the accurate determination of PV50 requires the MIC range to be relatively wide.
(§2) For microbiological studies, wild-type blaKPC-2 and its mutant variants were cloned into the shuttle vector pUCP24. Resulting plasmids were transformed in the efflux-deficient strain of P. aeruginosa PAM1154 using selection on 15 μg/ml of gentamicin. Using a strain of P. aeruginosa as opposed to E. coli as a host for various cloned genes was based on the following consideration. As well documented elsewhere ([41]), P. aeruginosa has a low-permeability outer membrane; consequently, the effect of β-lactamases on MIC is amplified in P. aeruginosa compared to that in E. coli due to the slowed uptake of β-lactams. Thus, this host is appropriate to detect β-lactamase activity (as an MIC increase) of low-catalytic-efficiency enzymes that rely heavily on low permeability of the outer membrane. […] MICs were determined using the Clinical and Laboratory Standards Institute (CLSI) broth microdilution method as described in CLSI document M07-A11 ([42]). […] BLI potency was defined as PV50 (PV, potentiation value). PV50 is the minimal concentration of a BLI that is required to reduce the antibiotic MIC to the middle of the MIC range (E50) where the highest MIC is the MIC for a KPC-producing strain with no inhibitor added and the lowest MIC is the MIC for the vector-only strain, corresponding to the complete inhibition of KPC. E50 is calculated as the square root of the product of the antibiotic MICs for the KPC-producing and the vector-only strains.
(§3) […]
(§4) […]

The test system of assay [2] is P. aeruginosa PAM1154 carrying wild-type KPC-2 (PAM4135). Described as above. Format: cell-based, Pseudomonas aeruginosa. The settings on record: PAM4135 KPC-2.
From the text: as §1, §2, §3, §4

Assay [3] has as its system P. aeruginosa PAM1154 carrying pUCP24-KPC-2::L169P (PAM4751). Put plainly: MIC, CLSI broth microdilution. In kind it is cell-based, Pseudomonas aeruginosa. To be noted: for MIC: Pseudomonas aeruginosa, PAM4751, pUCP24-KPC-2::L169P, drug alone.
From the text: (§5) The effects of KPC mutations on resistance to various antibiotics were investigated. For these studies, pUCP24 plasmids carrying wild-type and mutant blaKPC-2 genes as well as the pUCP24 vector were transformed into PAM1154, an efflux-deficient strain of Pseudomonas aeruginosa. In this host, the effect of β-lactamases on β-lactam MIC is amplified due to the slowed uptake of β-lactams across the low-permeability outer membrane without interference by efflux of either β-lactams or BLIs. Consequently, this host allows detection of β-lactamase activity (as an MIC increase) of low-catalytic-efficiency enzymes that rely heavily on the low permeability of the outer membrane. Using the strain that lacks efflux pumps ensures no interference from efflux in interpreting results. We next evaluated the steady-state protein expression levels in bacterial cells.
as §2
On the technique in general: In broth dilution the organism is exposed to a series of concentrations in liquid medium.

Assay [4] has as its system P. aeruginosa PAM1154 carrying pUCP24-KPC-2::D179Y (PAM4639). In words: MIC, CLSI broth microdilution. In kind it is cell-based, Pseudomonas aeruginosa. The settings on record: for MIC: Pseudomonas aeruginosa, PAM4639, pUCP24-KPC-2::D179Y, drug alone.
From the text: as §5, §2

For assay [5], the system named is P. aeruginosa PAM1154 carrying pUCP24 vector (PAM4175). In words: MIC, CLSI broth microdilution. In kind it is cell-based. To be noted: Pseudomonas aeruginosa, drug alone.
From the text: as §5, with “cells. […] The observed discrepancy with our results could be attributed to the difference in either the expression vector or host bacteria.” for “cells.”
For microbiological studies, wild-type blaKPC-2 and its mutant variants were cloned into the shuttle vector pUCP24. Resulting plasmids were transformed in the efflux-deficient strain of P. aeruginosa PAM1154 using selection on 15 μg/ml of gentamicin. Using a strain of P. aeruginosa as opposed to E. coli as a host for various cloned genes was based on the following consideration. As well documented elsewhere ([41]), P. aeruginosa has a low-permeability outer membrane; consequently, the effect of β-lactamases on MIC is amplified in P. aeruginosa compared to that in E. coli due to the slowed uptake of β-lactams. Thus, this host is appropriate to detect β-lactamase activity (as an MIC increase) of low-catalytic-efficiency enzymes that rely heavily on low permeability of the outer membrane. […] MICs were determined using the Clinical and Laboratory Standards Institute (CLSI) broth microdilution method as described in CLSI document M07-A11 ([42]). Potentiation of antibiotic activity by various BLIs in bacterial strains carrying wild-type (WT) and mutant KPC-2 genes was performed using standard checkerboard methodology ([43]). BLI potency was defined as PV50 (PV, potentiation value). PV50 is the minimal concentration of a BLI that is required to reduce the antibiotic MIC to the middle of the MIC range (E50) where the highest MIC is the MIC for a KPC-producing strain with no inhibitor added and the lowest MIC is the MIC for the vector-only strain, corresponding to the complete inhibition of KPC. E50 is calculated as the square root of the product of the antibiotic MICs for the KPC-producing and the vector-only strains.

As for `O=C(O)C[C@@H]1CC[C@H](NC(=O)Cc2cccs2)B(O)O1` [Vaborbactam, vaborbactam], in assay [1] (L169P, depending on the antibiotic), the “reduction of potency to enhance ceftazidime, cefepime or piperacillin vs wild-type KPC-2” value was “no more than 2 fold”. In addition, the PV50 in assay [1] (PAM4751 KPC-2::L169P, potentiation of cefepime) came out at 1 µg/mL; in assay [1] (PAM4751 KPC-2::L169P, potentiation of ceftazidime) it was 1 µg/mL; in assay [1] (PAM4751 KPC-2::L169P, potentiation of piperacillin), 1 µg/mL; in assay [2] (potentiation of cefepime), 0.5 µg/mL; in assay [2] (potentiation of ceftazidime) it was 0.5 µg/mL; in assay [2] (potentiation of piperacillin), 1 µg/mL. In addition, the MIC in assay [3], in assay [4] and in assay [5] was greater than 256 µg/mL in each case.
`CO/N=C(\C(=O)N[C@@H]1C(=O)N2C(C(=O)[O-])=C(C[N+]3(C)CCCC3)CS[C@H]12)c1csc(N)n1` [Cefepime, cefepime]: in assay [1] (PAM4751 KPC-2::L169P, avibactam 4 μg/ml), the “Antibiotic MIC with avibactam at 4 μg/ml” value is 0.5 µg/mL. The “Antibiotic MIC, No BLI” value in assay [1] (PAM4751 KPC-2::L169P, no BLI) is 32 µg/mL; in assay [2] (no BLI), 64 µg/mL. Besides, the “Beta-lactam MIC in the presence of BLI” value in assay [1] (avibactam 0 µg/ml) turned out to be 32 µg/mL; in assay [1] (avibactam 0.008 µg/ml) it was 32 µg/mL; in assay [1] (avibactam 0.031 µg/ml) it was 32 µg/mL; in assay [1] (avibactam 0.06 µg/ml), 32 µg/mL; in assay [1] (avibactam 0.5 µg/ml), 4 µg/mL; in assay [1] (avibactam 1 µg/ml) it was 2 µg/mL. Moreover, the “Beta-lactam MIC in the presence of BLI” value in assay [1] (avibactam 2 µg/ml) turned out to be 1 µg/mL; in assay [1] (avibactam 4 µg/ml) it was 0.5 µg/mL; in assay [1] (vaborbactam 0 µg/ml), 32 µg/mL; in assay [1] (vaborbactam 0.008 µg/ml), 32 µg/mL; in assay [1] (vaborbactam 0.031 µg/ml) it was 32 µg/mL; in assay [1] (vaborbactam 0.06 µg/ml) it was 32 µg/mL. Further, the “Beta-lactam MIC in the presence of BLI” value in assay [1] (vaborbactam 0.5 µg/ml) amounted to 4 µg/mL; in assay [1] (vaborbactam 1 µg/ml), 0.5 µg/mL; in assay [2] (avibactam 0 µg/ml), 64 µg/mL; in assay [2] (avibactam 0.008 µg/ml), 64 µg/mL; in assay [2] (avibactam 0.031 µg/ml), 64 µg/mL; in assay [2] (avibactam 0.06 µg/ml), 32 µg/mL. Also, the “Beta-lactam MIC in the presence of BLI” value in assay [2] (avibactam 0.5 µg/ml) was found to be 0.5 µg/mL; in assay [2] (vaborbactam 0 µg/ml), 64 µg/mL; in assay [2] (vaborbactam 0.008 µg/ml) it was 64 µg/mL; in assay [2] (vaborbactam 0.031 µg/ml) it was 64 µg/mL; in assay [2] (vaborbactam 0.06 µg/ml), 64 µg/mL; in assay [2] (vaborbactam 0.5 µg/ml) it was 2 µg/mL. The “reduction of MIC vs wild-type KPC-2 strain” value in assay [3] (L169P strain) and in assay [4] (D179Y strain) was 4 fold throughout. In addition, the MIC in assay [3] amounted to 64 µg/mL; in assay [4], 64 µg/mL; in assay [5], 0.125 µg/mL. The “increase of MIC vs vector-only strain” value in assay [3] ({}) and in assay [4] ({}) was 512 fold in each case.

What is called MIC is the lowest concentration found to suppress growth.
